System: soil nitrification: conversion of ammonium-N(NH4+) into nitrate-N(NO3−), Tujunga loamy sand
Conditions: for nitrification inhibition (slowing the conversion of ammonium-N into nitrate-N), in words: text on Experiments 1 and 2
Source text: Two soils were used in this experiment, a Tujunga loamy sand (thermic Typic Xeropsamments) collected in Dinuba, California along with a Clarion fine loam (mesic Typic Hapludolls), collected in Boone, Iowa.
Each soil was collected by hand from the top 15 mm of the soil profile and allowed to air-dry. Both soils were hand screened to remove large clumps and rocks that may have interfered with the experiment. Soil samples were taken before the start of the experiment and analyzed to assess the initial nutrient content and pH of the soil.
The experiments were made up of numerous individual plastic containers that each represented one (1) replicate of each fertilizer treatment and soil. All experiments were arranged as a completely randomized design consisting of 12-20 fertilizer treatments, two soils, with six replicates.
To begin the experiment, 200 g of the dried and screened soil was added to a 709 mL sealable plastic container. Distilled water was added to each container to bring the moisture level up to what would be considered optimal field moisture. It was important to determine this for each soil separately to ensure neither soil was too dry or too moist. This volume ranged from 15-25 ml per container with the Clarion soil being the highest. Once the appropriate amount of water was applied to each container, they were thoroughly stirred to ensure uniform mixing and to eliminate any clumps.
After the soil containers were filled and moistened, the individual liquid fertilizer treatments were prepared in a 100 ml Erlenmeyer flask. All treatments were applied as liquids to ensure uniform mixing and accurate applications. For some of the treatments a 20%-N urea solution was used as the primary nitrogen source. […]
All fertilizer treatments were made to the soil surface in each container using a micropipette at a nitrogen rate of 134.7 kg ha^−1 calculated on the surface area of each container which equals 125.8 cm^2. […]
Soil samples were initially taken at one (1) day after treatment (DAT). […] The difference in mass is recorded and used in later calculations. […]

Compound	"nitrate levels" (nitrite+nitrate levels) in the soil (after 8 weeks)	nitrification inhibition (slowing the conversion of ammonium-N into nitrate-N), in words
NC(N)=O [unprotected urea, Urea]	≥ 300 ppm	–
N.N.O=S(=O)(O)O [ammonium sulfates, ammonium sulfate]	–	did not work
O=S([O-])O.[K+] [potassium bisulfite]	–	did not work
